Some test systems named below: SW-620; IGROV-1; CAKI-1; MDA-MB-435; SK-MEL-2; Hs-578T; NCI-H460; NCI-H226; SNB-75; HOP-92; OVCAR-5; NCI/ADR-RES; UO-31; UACC-257; MOLT-4; TK-10; HT-29; RXF 393; DU-145; CCRF-CEM.
Holding throughout (assay): NCI tumour cell line growth inhibition, 48 h

This is an account of results in ChEMBL document CHEMBL1201862, “PubChem BioAssay data set” (2004).

Where “and” joins values, the source holds several entries; their conditions need not be identical. Equal values may be shown once.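 Tested at 5 concentrations; 48 h exposure; 96-well plates; endpoints linearly interpolated, else capped at highest concentration. Abbreviation: GI50, concentration required for 50% inhibition of growth.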 Calls of active or inactive are those of the source. No stated cut-off is given here; in the data, active = GI50 up to about 1.1 µM and inactive = higher.

For the compound `O=C1NC(=O)C(c2c[nH]c3ccccc23)=C1c1cnc[nH]1`, the GI50 in the experiment with SW-620 was 57.3 µM (inactive); in the experiment on IGROV-1, > 100 µM (inactive); in the experiment with CAKI-1, > 100 µM (inactive); in the experiment with MDA-MB-435, 75.3 µM (inactive); with SK-MEL-2, 43.4 µM (inactive); in the experiment with Hs-578T, 64.3 µM (inactive). In addition, the GI50 in the experiment with NCI-H460 is 55.3 µM (inactive); with NCI-H226 it was 1.79 µM (inactive); in the experiment on SNB-75, > 100 µM (inactive); with HOP-92, > 100 µM (inactive); in the experiment on OVCAR-5, > 100 µM (inactive); with NCI/ADR-RES, > 100 µM (inactive). Besides, the GI50 in the experiment on UO-31 is 70.6 µM (inactive); in the experiment on UACC-257 it was > 100 µM (inactive); in the experiment with MOLT-4, 8.47 µM (inactive); with TK-10, 89.5 µM (inactive); in the experiment with HT-29 it was 66.4 µM (inactive); with RXF 393, > 100 µM (inactive). Also, the GI50 with DU-145 was > 100 µM (inactive); in the experiment with CCRF-CEM, 47.3 µM (inactive).

In the case of `C=CCN1C(N)=C(C#N)C(C#N)(C#N)C1CCC` (stereo not given), the GI50 with SW-620, with IGROV-1, with CAKI-1, in the experiment on MDA-MB-435, with SK-MEL-2 and in the experiment on Hs-578T was > 100 µM (inactive) in each case. The GI50 is > 100 µM (inactive) in the experiment on NCI-H460; > 100 µM (inactive) in the experiment with NCI-H226; > 100 µM (inactive) in the experiment on SNB-75; 52.1 µM (inactive) with HOP-92; > 100 µM (inactive) in the experiment on OVCAR-5; > 100 µM (inactive) with NCI/ADR-RES. In addition, the GI50 in the experiment with UO-31 is 75.2 µM (inactive); with UACC-257 it was > 100 µM (inactive); with MOLT-4, > 100 µM (inactive); in the experiment on TK-10, > 100 µM (inactive); with HT-29 it was > 100 µM (inactive); in the experiment with RXF 393 it was > 100 µM (inactive). Besides, the GI50 in the experiment with DU-145 and in the experiment with CCRF-CEM was > 100 µM (inactive) throughout.

Turning to `O=C1C(=O)N(C23CC4CC(CC(C4)C2)C3)C(=S)N1c1ccccc1`, the GI50 in the experiment with SW-620 was > 100 µM (inactive); in the experiment with IGROV-1, > 100 µM (inactive); in the experiment with CAKI-1, > 100 µM (inactive); in the experiment on MDA-MB-435, > 100 µM (inactive); in the experiment with SK-MEL-2, 70.8 µM (inactive); with Hs-578T it was > 100 µM (inactive). Also, the GI50 is 97.9 µM (inactive) in the experiment on NCI-H460; 60 µM (inactive) in the experiment with NCI-H226; > 100 µM (inactive) in the experiment on SNB-75; 30 µM (inactive) in the experiment on HOP-92; > 100 µM (inactive) with OVCAR-5; 66.2 µM (inactive) in the experiment on NCI/ADR-RES. Besides, the GI50 was > 100 µM (inactive) in the experiment on UO-31; 32.7 µM (inactive) in the experiment on UACC-257; > 100 µM (inactive) in the experiment on MOLT-4; 58.9 µM (inactive) in the experiment with TK-10; > 100 µM (inactive) in the experiment with HT-29; > 100 µM (inactive) in the experiment with RXF 393. Besides, the GI50 in the experiment with DU-145 was > 100 µM (inactive); with CCRF-CEM, 29 µM (inactive).

As to `COc1ccc(/C=C2\CC3C4CC=C5C[C@@H](O)CC[C@]5(C)C4CC[C@]3(C)C2=O)cc1OC` (stereo not given in full), the GI50 with SW-620 is 65.6 µM (inactive); with IGROV-1 it was 75.3 µM (inactive); with CAKI-1, 29.2 µM (inactive); with MDA-MB-435 it was 24.3 µM (inactive); in the experiment on SK-MEL-2, 24.2 µM (inactive); in the experiment with Hs-578T, 36.5 µM (inactive). Besides, the GI50 is 17.3 µM (inactive) in the experiment on NCI-H460; 29.4 µM (inactive) with NCI-H226; 16 µM (inactive) in the experiment on SNB-75; 74.6 µM (inactive) in the experiment with HOP-92; 43.5 µM (inactive) in the experiment with OVCAR-5; 45 µM (inactive) in the experiment on NCI/ADR-RES. In addition, the GI50 in the experiment on UO-31 was 14.8 µM (inactive); with UACC-257 it was 13 µM (inactive); in the experiment with MOLT-4, 20 µM (inactive); with TK-10 it was 32.3 µM (inactive); in the experiment on HT-29 it was 31.8 µM (inactive); in the experiment with RXF 393 it was 34 µM (inactive). Also, the GI50 with DU-145 was 27.5 µM (inactive); in the experiment with CCRF-CEM, 20.7 µM (inactive).

As for `O=c1oc2c(ccc3c(O)cccc32)c2c1CCCC2`, the GI50 in the experiment with SW-620 was > 100 µM (inactive); in the experiment on IGROV-1, > 100 µM (inactive); in the experiment with CAKI-1 it was 32.2 µM (inactive); in the experiment on MDA-MB-435, > 100 µM (inactive); in the experiment with SK-MEL-2, 3.52 µM (inactive); in the experiment on Hs-578T it was 7.46 µM (inactive). Moreover, the GI50 in the experiment on NCI-H460 is 45.2 µM (inactive); in the experiment on NCI-H226, > 100 µM (inactive); in the experiment on SNB-75, 4.85 µM (inactive); in the experiment on HOP-92 it was 16.6 µM (inactive); with OVCAR-5, > 100 µM (inactive); in the experiment with NCI/ADR-RES, 46 µM (inactive). In addition, the GI50 in the experiment with UO-31 is 21.1 µM (inactive); in the experiment on UACC-257 it was > 100 µM (inactive); with MOLT-4, > 100 µM (inactive); with TK-10 it was > 100 µM (inactive); in the experiment on HT-29, > 100 µM (inactive); in the experiment on RXF 393, 14.5 µM (inactive). Besides, the GI50 in the experiment with DU-145 and in the experiment on CCRF-CEM was > 100 µM (inactive) each time.

Turning to `O=P1(N(CCCl)CCCl)Oc2ccc(Cl)cc2C(C(Cl)(Cl)Cl)c2cc(Cl)ccc2O1` (stereo not given), the GI50 in the experiment on SW-620 is 11.2 µM (inactive); in the experiment on CAKI-1 it was 16.5 µM (inactive); with MDA-MB-435 it was 18.5 µM (inactive); with SK-MEL-2 it was 18.5 µM (inactive); in the experiment with Hs-578T it was 13.6 µM (inactive); with NCI-H460, 8.28 µM (inactive). Further, the GI50 in the experiment on NCI-H226 was 17.8 µM (inactive); with SNB-75 it was 10.9 µM (inactive); in the experiment with HOP-92, 3.9 µM (inactive); in the experiment on OVCAR-5, 32.8 µM (inactive); with NCI/ADR-RES, 14.8 µM (inactive); in the experiment on UO-31, 10.9 µM (inactive). Further, the GI50 in the experiment on UACC-257 is 18 µM (inactive); with MOLT-4, 3.24 µM (inactive); in the experiment with TK-10 it was 26.2 µM (inactive); in the experiment on HT-29 it was 5.48 µM (inactive); with RXF 393 it was 12.7 µM (inactive); in the experiment on DU-145, 29.1 µM (inactive). Besides, the GI50 in the experiment on CCRF-CEM is 5.37 µM (inactive).

Turning to `C=CC(C)(C)c1cc([C@@H]2COc3cc(O)ccc3C2=O)c(O)c(O)c1OC`, the GI50 in the experiment with SW-620 is 26.7 µM (inactive); in the experiment with CAKI-1 it was 13.2 µM (inactive); in the experiment with MDA-MB-435, 19.3 µM (inactive); in the experiment on SK-MEL-2, 22.5 µM (inactive); in the experiment with Hs-578T it was 39 µM (inactive); in the experiment on NCI-H460, 66.4 µM (inactive). For the same compound, the GI50 in the experiment on NCI-H226 was 39.3 µM (inactive); in the experiment on SNB-75, 27.4 µM (inactive); in the experiment with HOP-92, 18.8 µM (inactive); in the experiment on OVCAR-5 it was 31.4 µM (inactive); in the experiment on NCI/ADR-RES it was 24.8 µM (inactive); in the experiment on UO-31, 15.9 µM (inactive). Besides, the GI50 with UACC-257 was 61.7 µM (inactive); in the experiment with MOLT-4, 25.7 µM (inactive); with TK-10, > 100 µM (inactive); in the experiment with HT-29 it was 21.9 µM (inactive); in the experiment on RXF 393 it was 4.85 µM (inactive); in the experiment with DU-145, 20.7 µM (inactive). Also, in the experiment with CCRF-CEM, the GI50 is 41.7 µM (inactive).

On to `COc1ccc2c(-c3ccc(O)cc3)c(Oc3ccc(Cl)cc3)c(=O)oc2c1`, for which the GI50 with SW-620 is 5.35 µM (inactive); with IGROV-1, 3.03 µM (inactive); in the experiment with CAKI-1, 2.81 µM (inactive); with MDA-MB-435, 7.43 µM (inactive); in the experiment on SK-MEL-2 it was 4.69 µM (inactive); with Hs-578T, 5.62 µM (inactive). Moreover, the GI50 in the experiment with NCI-H460 was 5.2 µM (inactive); in the experiment with NCI-H226, > 20.6 µM (inactive); in the experiment on SNB-75, 13.2 µM (inactive); in the experiment on HOP-92, 7.87 µM (inactive); with OVCAR-5, 4.89 µM (inactive); in the experiment on NCI/ADR-RES, > 19.8 µM (inactive). The GI50 is 1.14 µM (inactive) with UO-31; 8.95 µM (inactive) in the experiment on UACC-257; 3.72 µM (inactive) in the experiment with MOLT-4; 5.48 µM (inactive) in the experiment with TK-10; 8.34 µM (inactive) with RXF 393; 4.2 µM (inactive) with DU-145. In addition, the GI50 in the experiment on CCRF-CEM was 6.28 µM (inactive).

In the case of `Cc1cn2c(/C=N/NC(=N)N)c(-c3ccc(Cl)c([N+](=O)[O-])c3)nc2s1`, the GI50 is 0.244 µM (active) in the experiment with SW-620; 1.03 µM (active) in the experiment on IGROV-1; 3.36 µM (inactive) in the experiment with CAKI-1; 0.611 µM (active) with MDA-MB-435; 0.647 µM (active) in the experiment with SK-MEL-2; 0.973 µM (active) with Hs-578T. Moreover, the GI50 in the experiment on NCI-H460 was 1.42 µM (inactive); in the experiment on NCI-H226 it was 1.89 µM (inactive); in the experiment on SNB-75, 1.27 µM (inactive); in the experiment on HOP-92 it was 1.46 µM (inactive); in the experiment on OVCAR-5, 1.17 µM (inactive); in the experiment with NCI/ADR-RES, > 28.5 µM (inactive). For the same compound, the GI50 was 1.88 µM (inactive) with UO-31; 0.178 µM (active) in the experiment with UACC-257; 1.68 µM (inactive) in the experiment on TK-10; 0.55 µM (active) in the experiment with HT-29; 0.59 µM (active) with RXF 393; 1.79 µM (inactive) in the experiment on DU-145. For the same compound, the GI50 in the experiment on CCRF-CEM is 0.267 µM (active).

In the case of `CC(=O)OC1CC2C(=O)CC1(C)C2(C)C` (stereo not given), the GI50 in the experiment with SW-620 was > 83.8 µM (inactive); in the experiment on CAKI-1 it was > 100 µM (inactive); in the experiment with MDA-MB-435 it was > 100 µM (inactive); in the experiment on SK-MEL-2, > 100 µM (inactive); with Hs-578T, > 100 µM (inactive); in the experiment with NCI-H460, > 100 µM (inactive). The GI50 with NCI-H226 is > 100 µM (inactive); in the experiment on SNB-75, 67.9 µM (inactive) and > 83.6 µM (inactive); in the experiment on HOP-92, > 100 µM (inactive); in the experiment with OVCAR-5, > 100 µM (inactive); in the experiment on NCI/ADR-RES it was > 100 µM (inactive); in the experiment with UO-31, > 100 µM (inactive). Moreover, the GI50 in the experiment with UACC-257, in the experiment with MOLT-4, in the experiment with TK-10, with HT-29, with RXF 393 and in the experiment with DU-145 was > 100 µM (inactive) throughout. Also, the GI50 in the experiment on CCRF-CEM is > 100 µM (inactive).
